Data from ChEMBL document CHEMBL3046519, “Synthesis and biological evaluation of some pyrazole derivatives as anti-inflammatoryantibacterial agents” (2012).
In brackets after ≈: the same amount, converted by molar mass. Activity calls are given as the source filed them. No cut-off for these calls is given here.

Experiments:
[1] = test system: Rattus norvegicus; test: Anti-inflammatory activity in Rattus norvegicus Wistar albino (rat) assessed as inhibition of carrageenan-induced paw edema at 50 mg/kg, po administered for 30 min prior to carrageenan challenge measured at 4 hr relative to control; format: functional
[2] = test system: Rattus norvegicus; test: Anti-inflammatory activity in Rattus norvegicus Wistar albino (rat) assessed as inhibition of carrageenan-induced paw edema at 50 mg/kg, po administered for 30 min prior to carrageenan challenge measured at 1 hr relative to control; format: functional
[3] = test system: Bacillus subtilis; test: Antibacterial activity against Bacillus subtilis MTCC 121 at 4 mg/ml after 24 hr by agar well diffusion method; format: functional; conditions: MTCC 121, 24 h, read-out: DIZ
[4] = test system: Rattus norvegicus; test: Anti-inflammatory activity in Rattus norvegicus Wistar albino (rat) assessed as inhibition of carrageenan-induced paw edema at 50 mg/kg, po administered for 30 min prior to carrageenan challenge measured at 3 hr relative to control; format: functional
[5] = test system: Rattus norvegicus; test: Anti-inflammatory activity in Rattus norvegicus Wistar albino (rat) assessed as inhibition of carrageenan-induced paw edema at 50 mg/kg, po administered for 30 min prior to carrageenan challenge measured at 2 hr relative to control; format: functional
[6] = test system: Staphylococcus aureus; test: Antibacterial activity against Staphylococcus aureus MTCC 96 at 4 mg/ml after 24 hr by agar well diffusion method; format: functional; conditions: MTCC 96, 24 h, read-out: DIZ
[7] = test system: Escherichia coli; test: Antibacterial activity against Escherichia coli MTCC 1652 at 4 mg/ml after 24 hr by agar well diffusion method; format: functional, organism-based
[8] = test system: Pseudomonas aeruginosa; conditions: MTCC 741, 4 mg/ml
Description: Antibacterial activity against Pseudomonas aeruginosa MTCC 741 at 4 mg/ml after 24 hr by agar well diffusion method

[9] = test system: Staphylococcus aureus; test: Antibacterial activity against Staphylococcus aureus MTCC 96 by NCCLS broth macrodilution method; format: functional
[10] = test system: Bacillus subtilis; test: Antibacterial activity against Bacillus subtilis MTCC 121 by NCCLS broth macrodilution method; format: functional

| Structure (SMILES) | inhibition in vivo at 50 mg/kg [1] [%] | inhibition in vivo at 50 mg/kg [2] [%] | zone of inhibition at 4000 µg/mL [3] [mm] | inhibition in vivo at 50 mg/kg [4] [%] | inhibition in vivo at 50 mg/kg [5] [%] | zone of inhibition at 4000 µg/mL [6] [mm] | diameter of the inhibition zone (DIZ) [7] | DIZ [8] | MIC [9] [µg/mL] | MIC [10] [µg/mL] |
| --- | --- | --- | --- | --- | --- | --- | --- | --- | --- | --- |
| NS(=O)(=O)c1ccc(-n2cc(/C=N/Nc3nc(-c4ccc(Cl)cc4)cs3)c(-c3ccc(F)cc3)n2)cc1 | 75 | 35 | 13.3 | 73 | 29 | 14.3 | inactive | inactive | > 128 | > 128 |
| COc1ccc(-c2nn(-c3ccc(S(N)(=O)=O)cc3)cc2/C=N/Nc2nc(-c3ccc(C)cc3)cs2)cc1 | 70 | 37 | 17.3 | 72 | 65 | 20.6 | inactive | inactive | 64 (≈ 118 µM) | 128 (≈ 235 µM) |
| Cc1ccc(-c2nn(-c3ccc(S(N)(=O)=O)cc3)cc2/C=N/NC(N)=S)cc1 | 70 | 32 | 14.3 | 75 | 72 | 16.3 | inactive | inactive | > 128 | > 128 |
| NC(=S)N/N=C/c1cn(-c2ccc(S(N)(=O)=O)cc2)nc1-c1ccc(F)cc1 | 75 | 24 | 15.3 | 73 | 75 | 15.6 | inactive | inactive | > 128 | > 128 |
| NS(=O)(=O)c1ccc(-n2cc(/C=N/Nc3nc(-c4ccc(Cl)cc4)cs3)c(-c3ccccc3)n2)cc1 | 70 | 32 | 15.3 | 75 | 72 | 13.6 | inactive | inactive | > 128 | > 128 |
| Cc1ccc(-c2csc(N/N=C/c3cn(-c4ccc(S(N)(=O)=O)cc4)nc3-c3ccccc3)n2)cc1 | 60 | 28 | 14.6 | 57 | 65 | 15 | inactive | inactive | > 128 | > 128 |
| NS(=O)(=O)c1ccc(-n2cc(/C=N/Nc3nc(-c4ccc(Cl)cc4)cs3)c(-c3ccc(Cl)cc3)n2)cc1 | 58 | 28 | 15 | 73 | 67 | 14.6 | inactive | inactive | > 128 | > 128 |
| Cc1ccc(-c2nn(-c3ccc(S(N)(=O)=O)cc3)cc2/C=N/Nc2nc(-c3ccc(Cl)cc3)cs2)cc1 | 57 | 32 | 15.3 | 60 | 60 | 14.6 | inactive | inactive | > 128 | > 128 |
| COc1ccc(-c2nn(-c3ccc(S(N)(=O)=O)cc3)cc2/C=N/Nc2nc(-c3ccccc3)cs2)cc1 | 61 | 32 | 15.6 | 61 | 65 | 15.3 | inactive | inactive | > 128 | > 128 |
| NS(=O)(=O)c1ccc(-n2cc(/C=N/Nc3nc(-c4ccccc4)cs3)c(-c3ccc(F)cc3)n2)cc1 | 56 | 11 | 16.6 | 65 | 60 | 14.6 | inactive | inactive | > 128 | > 128 |
